# Source: patent publication US20050148653A1, “Polymaleimide compounds and their medical use” (priority 2001, published 2005)
# Columns and labels:
# HIV (IHV-1RF) = assay: Anti-viral (virucidal) assay: plate-bound HIV treated 10 minutes, C8166 cells added, syncytium score and XTT; type: cell-based; details: for Syncytia score day 5 (quadruplicate wells) / Syncytia score day 6 (quadruplicate wells): C8166 cells; for Mean Optical Readings at 450 nm: XTT cell viability; for Syncytia score day 6 (quadruplicate wells) / Mean Optical Readings at 450 nm / IC50: day 6; for IC50: XTT, virus treated 10 minutes, read-out: IC50 (virucidal)
# Protocol: HIV was attached to the surface of 96-well cell culture plates using 100 μl of 50 μg/ml poly-L-lysine hydrobromide (PLL) of molecular weight >300 K for 1 h at RT. The outer wells were left uncoated and filled with 250 μl of PBS to counteract the effects of evaporation. The coated wells were washed twice with PBS and 25 μl of RPMI 1640 medium containing 5×10^3 TCID50 of IHV-1RF was added and incubated for 1 h at RT. The wells were then washed twice with PBS and 25 μl of varying concentrations of the test compounds made up with serum free medium (containing a constant 10% DMSO) were added to the wells in quadruplicate and the plates incubated at 37° C. for 10 minutes. The wells were again washed twice with PBS and 5×10^4 C8166 cells in a volume of 300 μl distributed to each well and the plates incubated for 5 and 6 days respectively. On days 5 and 6 the cells were assessed microscopically for the presence of cytopathic effect (syncytium formation) and recorded. In order to quantify the cytopathic effect, XIT which is metabolised by viable but not dead cells, was added and the absorbance read at 450 nm after […] incubation at 37° C.
# An assessment of viral cytopathic effect was made microscopically on days 5 and 6, but the end point of the experiment was on day 6 when the level of virus infection (as determined by cell viability) was quantified by the use of XTT.
# Chlamydia trachomatis = assay: Chlamydia assay: transient treatment of Chlamydia with maleimides, infection of McCoy cells, iodine-stained inclusions counted; type: cell-based; details: for IODINE-STAINED INCLUSIONS/FIELD F1: field 1; for IODINE-STAINED INCLUSIONS/FIELD F2: field 2; for IODINE-STAINED INCLUSIONS/FIELD F3: field 3; for IODINE-STAINED INCLUSIONS/FIELD F4: field 4; for IODINE-STAINED INCLUSIONS/FIELD F5: field 5; for MEAN COUNT/FIELD (iodine-stained inclusions): mean of 5 fields; for COMMENTS: inclusions seen on entire coverslip: re-examined under low power; for TOTAL COUNT/FIELDS (iodine-stained inclusions): sum of 5 fields; for inhibition of the infection of McCoy cells with chlamydia: transient exposure of chlamydia to compound
# Protocol: Purified Chlamydia trachomatis (250 μl) was added to 250 μl of each compound concentration and the mixtures incubated at room temperature for 5 minutes. The tubes were then centrifuged (15000 rpm, 15 minutes), the supernatant decanted and the pellet washed serum free MEM (with 0.5 mls). This step was repeated and the resultant pellet resuspended MEM (in 0.5 ml) and inoculated into a confluent shell vial (coverslip) cultures of McCoy cells. The cultures were centrifuged (3000 rpm, 1 hour at 37° C.) and incubated for a further 2 hours prior to being changed onto MEM with 10% foetal calf serum, I μg/rl cycloheximide, 0.5% added glucose, vancomycin, streptomycin and amphoteracin B (Fungizone). The cultures were incubated for 68 hours, fixed in methanol and stained with Lugol's iodine. 3 replicates of each positive control (with and without DMSO) were included, as well as 2 uninoculated cell controls. Each coverslip culture was examined using low power (10×) objective to ensure that inclusions were evenly distributed and 5 high power (×40) fields were selected at random from different areas of the coverslip. Iodine stained inclusions were counted. Where no inclusions were seen on high power, the culture was re-examined under low power. Table 1. Effect of Transient Treatment with maleimides on Chlamydia Infection of McCoy Cell In Vitro. Chlamydia was pre-treated with each of the indicated maleimides for 5 minutes and the compound removed by centrifugation. McCoy cells were then exposed to the compound pre-treated chlamydia for 68 hours and inclusions counted following staining of cells with Lugols iodine.
# [1] = Human immunodeficiency virus 1, C8166
# [2] = final conc 0.02 (M), working conc 0.04 (M)
# [3] = final conc 0.4 (M), working conc 0.8 (M)
# [4] = final conc 1 (M), working conc 2 (M), 5 minutes pre-treatment, McCoy cells 68 hours
# [5] = final conc 1 (M), working conc 2 (M)
compound,measurement,setting,value
"O=C1C=CC(=O)N1CCN1C(=O)C=CC1=O [Compound 1, ethyl bis-maleimide]",Syncytia score day 5 (quadruplicate wells),HIV (IHV-1RF); Conc 0.003 mM,++++ (50-100% syncytia)
same,Syncytia score day 6 (quadruplicate wells),HIV (IHV-1RF); Conc 0.003 mM,++++ (50-100% syncytia)
same,Mean Optical Readings at 450 nm,HIV (IHV-1RF); Conc 0.003 mM,0.4875
same,Syncytia score day 5 (quadruplicate wells),HIV (IHV-1RF); Conc 0.01 mM,++++ (50-100% syncytia)
same,Syncytia score day 6 (quadruplicate wells),HIV (IHV-1RF); Conc 0.01 mM,++++ (50-100% syncytia)
same,Mean Optical Readings at 450 nm,HIV (IHV-1RF); Conc 0.01 mM,0.5028
same,Syncytia score day 5 (quadruplicate wells),HIV (IHV-1RF); Conc 0.03 mM,++++ (50-100% syncytia)
same,Syncytia score day 6 (quadruplicate wells),HIV (IHV-1RF); Conc 0.03 mM,++++ (50-100% syncytia)
same,Mean Optical Readings at 450 nm,HIV (IHV-1RF); Conc 0.03 mM,0.5142
same,Syncytia score day 5 (quadruplicate wells),HIV (IHV-1RF); Conc 0.1 mM,++++ (50-100% syncytia)
same,Syncytia score day 6 (quadruplicate wells),HIV (IHV-1RF); Conc 0.1 mM,++++ (50-100% syncytia)
same,Mean Optical Readings at 450 nm,HIV (IHV-1RF); Conc 0.1 mM,0.5347
same,Syncytia score day 5 (quadruplicate wells),HIV (IHV-1RF); Conc 0.3 mM,+++ (25-50% syncytia)
same,Syncytia score day 6 (quadruplicate wells),HIV (IHV-1RF); Conc 0.3 mM,+++ (25-50% syncytia)
same,Mean Optical Readings at 450 nm,HIV (IHV-1RF); Conc 0.3 mM,0.5853
same,Mean Optical Readings at 450 nm,HIV (IHV-1RF); Conc 1 mM,1.181
same,IC50,HIV (IHV-1RF); [1],1000 µM
same,IODINE-STAINED INCLUSIONS/FIELD F1,Chlamydia trachomatis; [2],0 inclusions/field
same,IODINE-STAINED INCLUSIONS/FIELD F2,Chlamydia trachomatis; [2],0 inclusions/field
same,IODINE-STAINED INCLUSIONS/FIELD F3,Chlamydia trachomatis; [2],0 inclusions/field
same,IODINE-STAINED INCLUSIONS/FIELD F4,Chlamydia trachomatis; [2],0 inclusions/field
same,IODINE-STAINED INCLUSIONS/FIELD F5,Chlamydia trachomatis; [2],0 inclusions/field
same,MEAN COUNT/FIELD (iodine-stained inclusions),Chlamydia trachomatis; [2],0 inclusions/field
same,COMMENTS: inclusions seen on entire coverslip,Chlamydia trachomatis; [2],6 inclusions
same,TOTAL COUNT/FIELDS (iodine-stained inclusions),Chlamydia trachomatis; [2],0
same,IODINE-STAINED INCLUSIONS/FIELD F1,Chlamydia trachomatis; [3],0 inclusions/field
same,IODINE-STAINED INCLUSIONS/FIELD F2,Chlamydia trachomatis; [3],0 inclusions/field
same,IODINE-STAINED INCLUSIONS/FIELD F3,Chlamydia trachomatis; [3],0 inclusions/field
same,IODINE-STAINED INCLUSIONS/FIELD F4,Chlamydia trachomatis; [3],0 inclusions/field
same,IODINE-STAINED INCLUSIONS/FIELD F5,Chlamydia trachomatis; [3],0 inclusions/field
same,MEAN COUNT/FIELD (iodine-stained inclusions),Chlamydia trachomatis; [3],0 inclusions/field
same,COMMENTS: inclusions seen on entire coverslip,Chlamydia trachomatis; [3],No
same,TOTAL COUNT/FIELDS (iodine-stained inclusions),Chlamydia trachomatis; [3],0
same,IODINE-STAINED INCLUSIONS/FIELD F1,Chlamydia trachomatis; [4],0 inclusions/field
same,IODINE-STAINED INCLUSIONS/FIELD F2,Chlamydia trachomatis; [5],0 inclusions/field
same,IODINE-STAINED INCLUSIONS/FIELD F3,Chlamydia trachomatis; [5],0 inclusions/field
same,IODINE-STAINED INCLUSIONS/FIELD F4,Chlamydia trachomatis; [5],0 inclusions/field
same,IODINE-STAINED INCLUSIONS/FIELD F5,Chlamydia trachomatis; [5],0 inclusions/field
same,MEAN COUNT/FIELD (iodine-stained inclusions),Chlamydia trachomatis; [5],0 inclusions/field
same,COMMENTS: inclusions seen on entire coverslip,Chlamydia trachomatis; [5],No
same,TOTAL COUNT/FIELDS (iodine-stained inclusions),Chlamydia trachomatis; [5],0
same,inhibition of the infection of McCoy cells with chlamydia,Chlamydia trachomatis,dose-dependent inhibition
"O=C1C=CC(=O)N1c1ccc(OCCOCCOCCOCCOc2ccc(N3C(=O)C=CC3=O)cc2)cc1 [Compound 2, PEG(5) bis phenyl bis maleimide]",Syncytia score day 5 (quadruplicate wells),HIV (IHV-1RF); Conc 0.003 mM,++++ (50-100% syncytia)
same,Syncytia score day 6 (quadruplicate wells),HIV (IHV-1RF); Conc 0.003 mM,++++ (50-100% syncytia)
same,Mean Optical Readings at 450 nm,HIV (IHV-1RF); Conc 0.003 mM,0.4883
same,Syncytia score day 5 (quadruplicate wells),HIV (IHV-1RF); Conc 0.01 mM,++++ (50-100% syncytia)
same,Syncytia score day 6 (quadruplicate wells),HIV (IHV-1RF); Conc 0.01 mM,++++ (50-100% syncytia)
same,Mean Optical Readings at 450 nm,HIV (IHV-1RF); Conc 0.01 mM,0.4895
same,Syncytia score day 5 (quadruplicate wells),HIV (IHV-1RF); Conc 0.03 mM,++++ (50-100% syncytia)
same,Syncytia score day 6 (quadruplicate wells),HIV (IHV-1RF); Conc 0.03 mM,++++ (50-100% syncytia)
same,Mean Optical Readings at 450 nm,HIV (IHV-1RF); Conc 0.03 mM,0.4928
same,Syncytia score day 5 (quadruplicate wells),HIV (IHV-1RF); Conc 0.1 mM,++++ (50-100% syncytia)
same,Syncytia score day 6 (quadruplicate wells),HIV (IHV-1RF); Conc 0.1 mM,++++ (50-100% syncytia)
same,Mean Optical Readings at 450 nm,HIV (IHV-1RF); Conc 0.1 mM,0.4983
same,Syncytia score day 5 (quadruplicate wells),HIV (IHV-1RF); Conc 0.3 mM,+++ (25-50% syncytia)
same,Syncytia score day 6 (quadruplicate wells),HIV (IHV-1RF); Conc 0.3 mM,++++ (50-100% syncytia)
same,Mean Optical Readings at 450 nm,HIV (IHV-1RF); Conc 0.3 mM,0.5092
same,Mean Optical Readings at 450 nm,HIV (IHV-1RF); Conc 1 mM,0.9895
same,IC50,HIV (IHV-1RF); [1],~1000 µM
same,inhibition at 1000 µM,"HIV (IHV-1RF); Human immunodeficiency virus 1, C8166, at 1 mM",~50%
same,IODINE-STAINED INCLUSIONS/FIELD F1,Chlamydia trachomatis; [2],3 inclusions/field
same,IODINE-STAINED INCLUSIONS/FIELD F2,Chlamydia trachomatis; [2],2 inclusions/field
same,IODINE-STAINED INCLUSIONS/FIELD F3,Chlamydia trachomatis; [2],6 inclusions/field
same,IODINE-STAINED INCLUSIONS/FIELD F4,Chlamydia trachomatis; [2],5 inclusions/field
same,IODINE-STAINED INCLUSIONS/FIELD F5,Chlamydia trachomatis; [2],7 inclusions/field
same,MEAN COUNT/FIELD (iodine-stained inclusions),Chlamydia trachomatis; [2],5 inclusions/field
same,TOTAL COUNT/FIELDS (iodine-stained inclusions),Chlamydia trachomatis; [2],23
same,IODINE-STAINED INCLUSIONS/FIELD F1,Chlamydia trachomatis; [3],1 inclusions/field
same,IODINE-STAINED INCLUSIONS/FIELD F2,Chlamydia trachomatis; [3],2 inclusions/field
same,IODINE-STAINED INCLUSIONS/FIELD F3,Chlamydia trachomatis; [3],2 inclusions/field
same,IODINE-STAINED INCLUSIONS/FIELD F4,Chlamydia trachomatis; [3],1 inclusions/field
same,IODINE-STAINED INCLUSIONS/FIELD F5,Chlamydia trachomatis; [3],5 inclusions/field
same,MEAN COUNT/FIELD (iodine-stained inclusions),Chlamydia trachomatis; [3],2 inclusions/field
same,TOTAL COUNT/FIELDS (iodine-stained inclusions),Chlamydia trachomatis; [3],11
same,IODINE-STAINED INCLUSIONS/FIELD F1,Chlamydia trachomatis; [4],0 inclusions/field
same,IODINE-STAINED INCLUSIONS/FIELD F2,Chlamydia trachomatis; [5],0 inclusions/field
same,IODINE-STAINED INCLUSIONS/FIELD F3,Chlamydia trachomatis; [5],0 inclusions/field
same,IODINE-STAINED INCLUSIONS/FIELD F4,Chlamydia trachomatis; [5],0 inclusions/field
same,IODINE-STAINED INCLUSIONS/FIELD F5,Chlamydia trachomatis; [5],0 inclusions/field
same,MEAN COUNT/FIELD (iodine-stained inclusions),Chlamydia trachomatis; [5],0 inclusions/field
same,COMMENTS: inclusions seen on entire coverslip,Chlamydia trachomatis; [5],6 inclusions
same,TOTAL COUNT/FIELDS (iodine-stained inclusions),Chlamydia trachomatis; [5],0
same,inhibition of the infection of McCoy cells with chlamydia,Chlamydia trachomatis,dose-dependent inhibition
